In PMC6271619, “Synthesis, Half-Wave Potentials and Antiproliferative Activity of 1-Aryl-substituted Aminoisoquinolinequinones” (Molecules, 2014):

Assays:
[1] = Cyclic voltammetry, first half-wave potential; assay type: physicochemical; details: for E^I1/2 (first half-wave potential) / −E^I1/2: acetonitrile, Pt electrode, vs non-aqueous Ag/Ag+; for −E^I1/2: sign inverted, 0.1 M tetraethylammonium tetrafluoroborate, sweep rate 100 mV s^−1
Procedure: The redox potentials of the members of the series were measured by cyclic voltammetry in acetonitrile as solvent, at room temperature, using a platinum electrode and 0.1 M tetraethylammonium tetrafluoroborate as the supporting electrolyte. […] The voltammograms were run in the potential range 0–2.0 V versus non-aqueous Ag/Ag+. The first half-wave potential values, E^I1/2, evaluated from the voltammograms obtained at a sweep rate of 100 mV s^−1, are summarized in Table 3.

[2] = system: AGS human gastric adenocarcinoma cells; test: MTT cell growth inhibition assay, AGS gastric adenocarcinoma cells, 72 h exposure; assay type: cell-based; details: for IC50: human gastric adenocarcinoma cell line, MTT, 72 h, mean of six determinations, read-out: IC50 ± SEM AGS; for selectivity index (IS), AGS: MRC-5 relative to AGS
[3] = system: HL-60 human promyelocytic leukemia cells; test: MTT cell growth inhibition assay, HL-60 promyelocytic leukemia cells, 72 h exposure; assay type: cell-based; details: for IC50: Homo sapiens, HL-60, promyelocytic leukemia cell line, MTT, 72 h, mean of six determinations, read-out: IC50 ± SEM HL-60
[4] = system: MRC-5 normal human lung fibroblasts; test: MTT cell growth inhibition assay, MRC-5 normal lung fibroblasts, 72 h exposure; details: MRC5, 72 h, read-out: IC50 ± SEM MRC-5
Procedure: Aminoisoquinolinequinones 5a–h and 6a–f were evaluated for in vitro antiproliferative activity against normal human lung fibroblast MRC-5 and two human cancer cells lines: AGS gastric adenocarcinoma and HL-60 promyelocytic leukemia cells, in 72 h drugs exposure assays. The antiproliferative activity of the new compounds was measured using conventional microculture tetrazolium reduction assays [25, 26, 27].
The cell lines used in this work were obtained from the American Type Culture Collection (ATCC, Manasas, VA, USA). […] The cells were stored in medium containing 10% glycerol in liquid nitrogen. […] Cells were sub-cultured once a week and the medium was changed every two days. Cells were grown in the following media: MRC-5 in Eagle minimal essential medium (EMEM), AGS cells in Ham F-12, and HL-60 in suspension in RPM1. The EMEM medium contained 2 mM L-glutamine, 1 mM sodium pyruvate and 1.5 g/L sodium hydrogen carbonate. Ham F-12 was supplemented with 2 mM L-glutamine and 1.5 g/L sodium hydrogen carbonate. RPM1 medium containing 1mM sodium pyruvate and 2.0 g/L sodium bicarbonate. […] For the experiments, cells were plated at a density of 50,000 cells/mL in 96-well plates. One day after seeding, the cells were treated with the medium containing the compounds at concentrations ranging from 0 up to 100 μM during 3 days. […] The compounds were dissolved in DMSO (1% final concentration) and complete medium. Untreated cells (medium containing 1% DMSO) were used as controls. At the end of the incubation, the MTT reduction (3-(4,5-dimethylthiazol-2-yl)-2,5-diphenyltetrazolium bromide) assay was carried out to determine cell viability. The final concentration of MTT was 1 mg/mL. The culture medium containing the compounds under evaluation, was removed from each well by means by vacuum aspiration before adding the MTT solution. MTT metabolite was dissolved adding 100 µL of ethanol (acidified with HCl). The plates were shaken for 10 min and the absorbance was measured at 550 nm using a Universal Microplate Reader (ELx800, Bio-Tek Instruments Inc., Winnoski, VT, USA). Six replicates for each concentration were used and the values were averaged. […] The IC50 value was obtained adjusting the dose-response curve to a sigmoidal model (a + (b − a)/1 + 10^(x − c)), where c = log IC50.

Row | E^I1/2 (first half-wave potential) [1] [mV] | −E^I1/2 [1] [mV] | melting point [°C] | IC50 [2] [µM] | IC50 [3] [µM] | E^I1/2 (half-wave potential) [1] [mV] | SMILES | IC50 [4] [µM] | antiproliferative activity on AGS cancer cell line (in words) ([2]; effect of phenyl group inserted at 1-position of 5b) | selectivity index (IS), AGS [2] | selectivity index (IS), HL-60 ([3]; MRC-5 relative to HL-60)
1 | – | 399 | 175 to 176.5 | – | – | – | COC(=O)c1c(C)nc(-c2ccccc2)c2c1C(=O)C=CC2=O [3b, Methyl 3-methyl-5,8-dioxo-1-phenyl-5,8-dihydroisoquinoline-4-carboxylate] | – | – | – | –
2 | – | 392 | 140 to 142.5 | – | – | – | COC(=O)c1c(C)nc(-c2cccs2)c2c1C(=O)C=CC2=O [3c, Methyl 3-methyl-5,8-dioxo-1-(thiophen-2-yl)-5,8-dihydroisoquinoline-4-carboxylate] | – | – | – | –
3 | – | 415 | 159.5 to 160.5 | – | – | – | COC(=O)c1c(C)nc(-c2ccco2)c2c1C(=O)C=CC2=O [3d, Methyl 1-(furan-2-yl)-3-methyl-5,8-dioxo-5,8-dihydroisoquinoline-4-carboxylate] | – | – | – | –
4 | −344 | 344 | 146 to 148 | – | – | – | CC(=O)c1c(C)ncc2c1C(=O)C=CC2=O [4a, 4-Acetyl-3-methylisoquinoline-5,8-dione] | – | – | – | –
5 | – | 416 | 162.5 to 164 | – | – | – | CC(=O)c1c(C)nc(-c2ccccc2)c2c1C(=O)C=CC2=O [4b, 4-Acetyl-3-methyl-1-phenylisoquinoline-5,8-dione] | – | – | – | –
6 | – | 430 | 161.5 to 163 | – | – | – | CC(=O)c1c(C)nc(-c2cccs2)c2c1C(=O)C=CC2=O [4c, 4-Acetyl-3-methyl-1-(thiophen-2-yl)isoquinoline-5,8-dione] | – | – | – | –
7 | – | 384 | 159 to 160 | – | – | – | CC(=O)c1c(C)nc(-c2ccco2)c2c1C(=O)C=CC2=O [4d, 4-Acetyl-1-(furan-2-yl)-3-methylisoquinoline-5,8-dione] | – | – | – | –
8 | – | 563 | – | 1.1 ± 0.03 | 14.8 ± 0.74 | – | COC(=O)c1c(C)ncc2c1C(=O)C=C(Nc1ccccc1)C2=O [5a] | 2.7 ± 0.6 | – | – | –
9 | – | 551 | – | 1.1 ± 0.1 | 3.8 ± 0.07 | – | COC(=O)c1c(C)ncc2c1C(=O)C=C(Nc1ccc(OC)cc1)C2=O [5b] | 2.8 ± 0.8 | – | – | –
10 | – | 560 | 169.9 to 171.4 | 2.52 ± 0.17 | 4.39 ± 0.26 | – | COC(=O)c1c(C)nc(-c2ccccc2)c2c1C(=O)C=C(Nc1ccccc1)C2=O [5c, Methyl 3-methyl-5,8-dioxo-1-phenyl-7-(phenylamino)-5,8-dihydroisoquinoline-4-carboxylate] | 5.91 ± 0.36 | – | – | –
11 | – | 583 | 202 to 203.5 | > 100 | > 100 | – | COC(=O)c1c(C)nc(-c2ccccc2)c2c1C(=O)C=C(Nc1ccc(OC)cc1)C2=O [5d, Methyl 7-(4-methoxyphenylamino)-3-methyl-5,8-dioxo-1-phenyl-5,8-dihydroisoquinoline-4-carboxylate] | > 100 | suppression of the antiproliferative activity | – | –
12 | – | 565 | 163.3 to 165.3 | 4.24 ± 0.21 | 5.19 ± 0.31 | – | COC(=O)c1c(C)nc(-c2cccs2)c2c1C(=O)C=C(Nc1ccccc1)C2=O [5e, Methyl 3-methyl-5,8-dioxo-7-(phenylamino)-1-(thiophen-2-yl)-5,8-dihydroisoquinoline-4-carboxylate] | 9.89 ± 0.51 | – | – | –
13 | – | 583 | 214 to 216 | 3.28 ± 0.13 | 10.26 ± 0.09 | – | COC(=O)c1c(C)nc(-c2cccs2)c2c1C(=O)C=C(Nc1ccc(OC)cc1)C2=O [5f, Methyl 7-(4-methoxyphenylamino)-3-methyl-5,8-dioxo-1-(thiophen-2-yl)-5,8-dihydroisoquinoline-4-carboxylate] | 9.19 ± 0.53 | – | – | –
14 | – | 554 | 248 to 249 | 1.79 ± 0.11 | 5 ± 0.35 | – | COC(=O)c1c(C)nc(-c2ccco2)c2c1C(=O)C=C(Nc1ccccc1)C2=O [5g, Methyl 1-(2-furan-2-yl)-3-methyl-5,8-dioxo-7-(phenylamino)-5,8-dihydroisoquinoline-4-carboxylate] | 4.72 ± 0.29 | – | – | –
15 | – | 577 | 144 to 146 | 1.83 ± 0.11 | 8.04 ± 0.49 | – | COC(=O)c1c(C)nc(-c2ccco2)c2c1C(=O)C=C(Nc1ccc(OC)cc1)C2=O [5h, Methyl 1-(2-furan-2-yl)-7-(4-methoxyphenylamino)-3-methyl-5,8-dioxo-5,8-dihydroisoquinoline-4-carboxylate] | 4.58 ± 0.35 | – | – | –
16 | −464 | 464 | 178 to 180 | 1.19 ± 0.07 | 1.24 ± 0.06 | -464 | CC(=O)c1c(C)ncc2c1C(=O)C=C(Nc1ccccc1)C2=O [6a, 4-Acetyl-3-methyl-7-(phenylamino)isoquinoline-5,8-dione] | 3.67 ± 0.22 | – | 3.08 | 2.96
17 | – | 588 | 181.5 to 183 | 2.21 ± 0.09 | 4.74 ± 0.37 | – | CC(=O)c1c(C)nc(-c2ccccc2)c2c1C(=O)C=C(Nc1ccccc1)C2=O [6b, 4-Acetyl-3-methyl-1-phenyl-7-(phenylamino)isoquinoline-5,8-dione] | 5.51 ± 0.22 | – | – | –
18 | – | 576 | 93.5 to 94.5 | > 100 | > 100 | – | CC(=O)c1c(C)nc(-c2cccs2)c2c1C(=O)C=C(Nc1ccccc1)C2=O [6c, 4-Acetyl-3-methyl-7-(phenylamino)-1-(thiophen-2-yl)isoquinoline-5,8-dione] | > 100 | – | – | –
19 | – | 533 | 187 to 188.5 | 1.79 ± 0.11 | 8.19 ± 0.57 | – | CC(=O)c1c(C)nc(-c2ccco2)c2c1C(=O)C=C(Nc1ccccc1)C2=O [6d, 4-Acetyl-1-(2-furyl)-3-methyl-7-(phenylamino)isoquinoline-5,8-dione] | 5.72 ± 0.24 | – | – | –
20 | – | 570 | 162 to 163 | 4.66 ± 0.28 | 9.36 ± 0.72 | – | COc1ccc(NC2=CC(=O)c3c(C(C)=O)c(C)nc(-c4ccccc4)c3C2=O)cc1 [6e, 4-Acetyl-7-(4-methoxyphenylamino)-3-methyl-1-phenylisoquinoline-5,8-dione] | 16.1 ± 1.11 | – | – | –
21 | – | 576 | 188.5 to 190 | 4.28 ± 0.21 | > 100 | – | COc1ccc(NC2=CC(=O)c3c(C(C)=O)c(C)nc(-c4cccs4)c3C2=O)cc1 [6f, 4-Acetyl-7-(4-methoxyphenylamino)-3-methyl-1-(thiophen-2-yl)isoquinoline-5,8-dione] | > 100 | – | > 23 | –

Row | SMILES | E^I1/2 (first half-wave potential) [1] [mV] | −E^I1/2 [1] [mV] | melting point [°C] | IC50 [2] [µM] | IC50 [3] [µM] | E^I1/2 (half-wave potential) [1] [mV] | IC50 [4] [µM] | antiproliferative activity on AGS cancer cell line (in words) ([2]; effect of phenyl group inserted at 1-position of 5b) | selectivity index (IS), AGS [2] | selectivity index (IS), HL-60 ([3]; MRC-5 relative to HL-60)
22 | COC(=O)c1c(C)ncc2c1C(=O)C=CC2=O [3a] | −352 | 352 | – | – | – | – | – | – | – | –
